Values joined by “and” are separate entries in the source; they are usually repeats but may differ in a detail not shown here. Identical values can stand only once.
Molecular target: T1, Muscarinic acetylcholine receptor M1 (Homo sapiens, UniProt P11229)
T1 sequence (P11229 whole entry): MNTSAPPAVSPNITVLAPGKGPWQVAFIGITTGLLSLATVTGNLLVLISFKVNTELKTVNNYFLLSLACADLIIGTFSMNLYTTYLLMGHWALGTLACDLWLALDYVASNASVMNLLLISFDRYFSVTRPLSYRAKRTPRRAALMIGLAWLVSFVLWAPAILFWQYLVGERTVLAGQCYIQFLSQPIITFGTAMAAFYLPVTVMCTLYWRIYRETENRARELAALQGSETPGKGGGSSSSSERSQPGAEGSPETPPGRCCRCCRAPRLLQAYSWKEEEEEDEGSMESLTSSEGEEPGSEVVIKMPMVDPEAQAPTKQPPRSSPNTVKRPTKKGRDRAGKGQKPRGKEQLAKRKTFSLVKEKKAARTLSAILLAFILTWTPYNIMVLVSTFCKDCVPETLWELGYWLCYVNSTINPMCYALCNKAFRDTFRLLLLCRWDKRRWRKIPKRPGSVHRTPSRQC
Assay: Positive allosteric modulator activity at human muscarinic M1 receptor by calcium mobilization assay

EC50: 3.31 µM and 3.3 µM
Structure (SMILES): Cn1cc(-c2ccc(CN3C(=O)C(O)(C(F)(F)F)c4ccccc43)c(F)c2)cn1 (stereo unspecified)

Reference: BindingDB's records for doi:10.1016/j.bmcl.2012.11.092 (Vanderbilt University Medical Center, 2012)
